Data: patent US10046050B2, “Targeting immunotherapy for amyloidosis” (UNIVERSITY OF TENNESSEE RESEARCH FOUNDATION, priority 2014, dated 2018)

What was measured:
Aβ(1-40) fibrils = molecular target: T1, Aβ(1-40) fibrils (Homo sapiens, UniProt P05067); test: EuLISA of murine 11-1F4 on synthetic amyloid fibrils with or without p66; format: binding; settings: p66 added to fibril-coated wells
T1 construct: synthetic amyloid fibrils composed of rVλ6Wil (AL fibrils) or Aβ(1-40); host or cells: synthetic peptide fibrils
T1 sequence (P05067 672-711 limits assumed): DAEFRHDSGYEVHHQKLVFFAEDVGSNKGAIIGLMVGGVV
Description: (§1) To assess the interaction of 11-1F4 with synthetic amyloid fibrils, we evaluated the interaction of murine 11-1F4 with synthetic amyloid fibrils composed of the λ6 light chain Wil-associated with light chain (AL) amyloidosis, or Aβ(1-40), associated with Alzheimer's disease and cerebral amyloid angiopathy. More particularly, Costar high binding plates were coated with 50 μl per well of […] of synthetic amyloid fibrils composed of rVλ6Wil (AL fibrils) or Aβ(1-40) overnight at 37° C. The plates were washed with 1× solution of phosphate buffered saline with 0.05% (v/v) tween 20 (PBST)—similar wash steps were performed between each step. As a “blocking step” the plates were incubated for 1 h at 37° C. with 200 μl of 1% (w/v) BSA in PBS per well. The murine 11-1F4 mAb was added from 100 nM (in BSAT), as a starting concentration, and diluted 1:2 across the microplate and incubation for 1 h at 37° C. Biotinylated goat anti-mouse secondary antibodies (Sigma) were used at a 1:3000 dilution in BSAT. Europium-conjugated streptavidin (Perkin Elmer) was added (1:1000 dilution of stock) as a detection medium and the plate incubated for 1 h 37° C. […] was quantified following addition of enhancement solution (Perkin Elmer) and the time-resolved fluorescence measured using a Victor 3 Wallac plate reader (Perkin Elmer).

[1] = system: synthetic amyloid fibrils composed of rVλ6Wil (AL fibrils); test: as above; format: binding; settings: p66 added to fibril-coated wells
Description: as §1

AA amyloid = molecular target: T2, AA amyloid (Mus musculus, UniProt P05367); test: In vivo binding of ^125I-p66 in AA mice (microautoradiography, SPECT/CT, biodistribution)
T2 construct: from tissue; host or cells: organs of living H2-L^d-huIL-6 Tg Balb/c mice after AEF injection
T2 sequence (P05367 20-94 limits assumed): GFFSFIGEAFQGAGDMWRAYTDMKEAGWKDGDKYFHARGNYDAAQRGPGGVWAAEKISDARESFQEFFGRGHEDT
Description: Systemic visceral AA amyloidosis was induced in H2-L^d-huIL-6 Tg Balb/c transgenic mice that constitutively express the human interleukin-6 transgene, by iv injection of 10 μg of purified, splenic AA amyloid (amyloid enhancing factor; AEF) in 100 μL of sterile phosphate-buffered saline (PBS). Peptide p66 was evaluated in mice at 4-6 wk post AEF injection when amyloid load was significant.
Imaging was performed using WT or AA amyloid mice (n=3) that were injected with ˜5 μg of ^125I-p66, 125 μCi in the lateral tail vein. After the appropriate uptake time (data for 4 and 72 h pi shown), mice were euthanized by isoflurane inhalation overdose. SPECT images were acquired using an Inveon trimodality imaging platform (Siemens Preclinical Solution, Knoxville, Tenn.) running Inveon Acquisition Workplace software (ver. 2.0). Low energy (^125I; 25-45 keV) gamma photons were acquired at each of 60, 16-sec projections with 90 mm of bed travel. […]
Samples of liver, spleen, pancreas, kidneys, small and large intestines, stomach and heart were harvested post mortem from every mouse undergoing imaging with ^125I-p66. A sample of each was placed into a tared, plastic vial, weighed and the ^125I radioactivity measured using an automated Wizard 3 gamma counter (1480 Wallac Gamma Counter, Perkin Elmer). The biodistribution data were expressed as % injected dose/g tissue (% ID/g). […]

healthy tissues = test: In vivo ^125I-p66 in healthy WT mice (microautoradiography); settings: autoradiography
Description: Imaging was performed using WT or AA amyloid mice (n=3) that were injected with ˜5 μg of ^125I-p66, 125 μCi in the lateral tail vein. After the appropriate uptake time (data for 4 and 72 h pi shown), mice were euthanized by isoflurane inhalation overdose. SPECT images were acquired using an Inveon trimodality imaging platform (Siemens Preclinical Solution, Knoxville, Tenn.) running Inveon Acquisition Workplace software (ver. 2.0). Low energy (^125I; 25-45 keV) gamma photons were acquired at each of 60, 16-sec projections with 90 mm of bed travel. A 1 mm-diameter, 5-pinhole (Mouse Whole Body) collimator was used at 30 mm from the center of the field of view. Data were reconstructed post hoc onto an 88×88×312 matrix with isotropic 0.50 mm voxels using a 3D ordered subset expectation maximization (OSEM) algorithm (8 iterations; 6 subsets).
For autoradiography, 6-μm-thick sections were cut from formalin-fixed, paraffin-embedded blocks, containing tissues from mice that had received […]. The sections were placed on Plus microscope slides (Fisher Scientific), dipped in NTB-2 emulsion (Eastman Kodak), stored in the dark, and developed after a 4 day exposure. Each section was counterstained with hematoxylin and eosin.
All tissue sections were examined using a Leica DM500 light microscope fitted with cross-polarizing filters (for Congo red). […]

reactivity of the 11-1F4 mAb with fibrils when p66 was added (Aβ(1-40) fibrils): enhanced
time post injection at which amyloid in the liver could be readily visualized by SPECT imaging (AA amyloid; AA mice, ^125I-p66): at least 72 h
binding of radiolabeled peptide to amyloid deposits in vivo (AA amyloid; mice with systemic AA amyloidosis, iv, autoradiography vs Congo red): specifically bound the amyloid deposits
Substance: KAQKAQAKQAKQAQKAQKAQAKQAKQAQKAQKAQAKQAKQ SVTVVT KHYAAFPENLLI [p66]
reactivity of the 11-1F4 mAb with fibrils when p66 was added [1]: enhanced
binding of radiolabeled peptide to healthy tissues in vivo (healthy tissues): did not bind to any tissue that was studied
